“And” between values parts separate entries of the source, which are not always exact repeats. Identical values can stand only once. Like-named read-outs stand apart in the source and are kept apart here.
Assays:
[1] = tested on: HeLa FlpIn ENT2 cell line; conditions: 2 minutes
HeLa S2 cell line = assay: Functional assessment: NBMPR block of [3H]uridine uptake in HeLa S2 cells; format: cell-based, human; conditions: 100 nM NBMPR, 2 minutes
[2] = ref Table S8, cited from earlier work
ENT1 [3] = target: T1, ENT1 (Homo sapiens, UniProt Q99808); assay: Inhibition of [3H]uridine uptake into WT HeLa; format: cell-based; conditions: for inhibition at 20 µM: HeLa
T1 sequence (Q99808 1-456): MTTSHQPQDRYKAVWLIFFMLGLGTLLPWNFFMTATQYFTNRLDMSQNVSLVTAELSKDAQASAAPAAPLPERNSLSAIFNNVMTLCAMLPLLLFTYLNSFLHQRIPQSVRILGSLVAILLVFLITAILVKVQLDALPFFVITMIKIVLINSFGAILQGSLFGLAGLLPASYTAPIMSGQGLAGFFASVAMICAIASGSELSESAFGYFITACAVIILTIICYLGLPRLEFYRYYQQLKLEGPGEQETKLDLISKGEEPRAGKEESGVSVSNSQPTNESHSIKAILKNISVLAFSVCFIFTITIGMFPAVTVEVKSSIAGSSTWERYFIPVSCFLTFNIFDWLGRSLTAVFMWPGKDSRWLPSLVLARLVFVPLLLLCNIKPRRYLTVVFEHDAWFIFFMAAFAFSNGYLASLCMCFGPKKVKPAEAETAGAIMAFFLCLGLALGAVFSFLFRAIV

ENT2 [4] = target: T2, ENT2 (Homo sapiens, UniProt Q14542); assay: Inhibition of [3H]uridine uptake into HeLa FlpIn cells overexpressing hENT2; format: cell-based; conditions: for inhibition at 20 µM: HeLa
T2 sequence (Q14542 1-456): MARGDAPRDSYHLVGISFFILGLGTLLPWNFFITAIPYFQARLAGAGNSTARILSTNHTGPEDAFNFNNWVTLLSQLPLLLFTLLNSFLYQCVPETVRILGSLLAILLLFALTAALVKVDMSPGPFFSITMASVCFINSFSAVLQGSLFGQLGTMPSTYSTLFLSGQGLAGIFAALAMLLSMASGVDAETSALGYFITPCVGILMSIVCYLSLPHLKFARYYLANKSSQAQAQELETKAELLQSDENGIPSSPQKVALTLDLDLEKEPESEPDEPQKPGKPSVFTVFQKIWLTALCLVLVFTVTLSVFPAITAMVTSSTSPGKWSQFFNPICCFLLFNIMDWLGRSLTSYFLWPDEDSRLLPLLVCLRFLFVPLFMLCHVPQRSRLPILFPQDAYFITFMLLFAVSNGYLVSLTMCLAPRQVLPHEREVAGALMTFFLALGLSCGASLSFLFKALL

ENT2 [5] = target: T2, ENT2; conditions: 5 min uptake, pH 7.4
ENT1 [6] = target: T1, ENT1; assay: Kinetics of radiolabeled uridine uptake, ENT1 cell line; format: cell-based; conditions: 5 min uptake, pH 7.4
[7] = read-out: ENT1 % Inhibition (20μM)
[8] = read-out: ENT2 % Inhibition (20μM)
[9] = read-out: ENT1 inhibition of uridine uptake (Spectrum screen, text)
[10] = read-out: ENT2 inhibition of transport activity (Spectrum screen, text)

SMILES	IC50 (ENT1 [3]) [µM]	inhibition at 20 µM (ENT1 [3]; [7]) [%]	IC50 (ENT2 [4]) [µM]	inhibition at 20 µM (ENT2 [4]; [8]) [%]	also measured
O=[N+]([O-])c1ccc(CSc2ncnc3c2ncn3C2OC(CO)C(O)C2O)cc1 (centres unmarked) [NBMPR, nitrobenzylthioinosine]	–	–	–	–	total [3H]uridine uptake blocked ([1]; 100 nM NBMPR): ~ 55%; total [3H]uridine uptake reduced ([1]; 100 μM NBMPR): ~ 80%; reduction of [3H]uridine uptake (HeLa S2 cell line): 65–75%
CC(=O)N1CCN(c2ccc(OCC3COC(Cn4ccnc4)(c4ccc(Cl)cc4Cl)O3)cc2)CC1 (centres unmarked) [ketoconazole]	7.2 ± 1.2	98.4	22.8 ± 0.7	89.4	human plasma levels (molar) ([2]; converted from ng/mL): 6.6 µM and 11.3 µM; human plasma levels ([2]; documented clinical concentrations): 3500 ng/mL and 6000 ng/mL
CC(=O)[C@H]1CC[C@H]2[C@@H]3C[C@H](C)C4=CC(=O)CC[C@]4(C)[C@H]3[C@@H](O)C[C@]12C [medrysone]	4.44 ± 0.9	95.1	210 ± 89.2	56.3	–
O=c1c(O)c(-c2cc(O)c(O)c(O)c2)oc2cc(O)cc(O)c12 [myricetin]	47.4 ± 1.7	82.4	28.2 ± 1.6	–	–
C[C@@H]1O[C@@H](O[C@H]2[C@H](Oc3cc(O)c4c(c3)O[C@H](c3ccc(O)cc3)CC4=O)O[C@H](CO)[C@@H](O)[C@@H]2O)[C@H](O)[C@H](O)[C@H]1O [naringin]	101 ± 8.9	24.4	266 ± 81.5	8.5	–
O=c1c(O)c(-c2ccc(O)c(O)c2)oc2cc(O)cc(O)c12 [quercetin]	20.6 ± 6.8	53.1	117 ± 24.6	84.3	–
COc1ccc(-c2cc(=O)c3c(OC)c(OC)c(OC)cc3o2)cc1OC [sinensetin]	1.25 ± 0.3	95.9	22.2 ± 2.2	82.5	inhibition at 20 µM (ENT1 [3]; [9]): ~80%; inhibition at 20 µM (ENT2 [4]; [10]): 35%
C=CC[C@@H]1/C=C(\C)C[C@H](C)C[C@H](OC)[C@H]2O[C@@](O)(C(=O)C(=O)N3CCCC[C@H]3C(=O)O[C@H](/C(C)=C/[C@@H]3CC[C@@H](O)[C@H](OC)C3)[C@H](C)[C@@H](O)CC1=O)[C@H](C)C[C@@H]2OC [tacrolimus]	–	–	–	–	inhibition at 20 µM (ENT1 [3]; [9]): ~80%; inhibition at 20 µM (ENT2 [4]; [10]): 35%
O=c1ccn([C@@H]2O[C@H](CO)[C@@H](O)[C@H]2O)c(=O)[nH]1 [uridine]	–	–	–	–	Kt, Michaelis constant for uridine (ENT2 [5]): 119.1 ± 28.9 µM; Jmax, maximal rate of uridine transport (ENT1 [6]): 20.2 ± 5.1 pmol·cm^−2·min^−1; Kt, Michaelis constant for uridine (ENT1 [6]): 37.7 ± 12.9 µM

Reference: publication PMC12486301 (The Journal of pharmacology and experimental therapeutics, 2025)
